According to patent US8249697B2, “Cardiac output monitor with compensation for tissue perfusion” (Alfred E. Mann Institute for Biomedical Engineering at the …, priority 2008, dated 2012):

Experiments:
[1] = disappearance of ICG from blood after high dose intravenous injection (calibration sequence); format: in vivo, New Zealand White rabbits; settings: rabbit, 1 mg ICG intravenously, metabolized by the liver
From the text: Experiments have been performed in New Zealand White rabbits (2.8-3.5 Kg) anesthetized with halothane and artificially ventilated with an oxygen-enriched gas mixture (FiO2˜0.4) to achieve a SaO2 above 99% and an end-tidal CO2 between 28 and 32 mm Hg (FIG. 4). The left femoral artery was cannulated for measurement of the arterial blood pressure throughout the procedure. A small catheter was positioned in the left brachial vein to inject the indicator, ICG. Body temperature was maintained with a heat lamp.
Calibration of the transcutaneous fluorescence intensity measured at the level of the animals' ear as a function of ICG concentration in blood was performed as follows. […]
As the liver metabolizes ICG, the blood ICG concentration decreases back to 0 in about 20 minutes. […] The fluorescence intensity of the blood in the cuvette was converted to a measurement of concentration using the known standard curve of fluorescence intensity versus ICG concentration established for the cuvette. ICG fluorescence was measured at the level of the ear at the exact time of the blood sample withdrawal. […]
For the range of concentrations used in these studies, ICG concentration and transcutaneous fluorescence were linearly related. The calibration line passes through the origin of the axes since there is no measured fluorescence when the ICG blood concentration is 0.

blood proteins = settings: stated as typical; cited from earlier work
[2] = metabolites are not fluorescent; cited from earlier work

time for blood ICG concentration to decrease back to 0 [1]: about 20 minutes
Structure (SMILES): CC1(C)C(/C=C/C=C/C=C/C=C2\N(CCCCS(=O)(=O)O)c3ccc4ccccc4c3C2(C)C)=[N+](CCCCS(=O)(=O)[O-])c2ccc3ccccc3c21 [ICG, indocyanine green]
fraction of ICG injected in the bloodstream that binds to blood proteins (blood proteins): more than 95%
stability in aqueous solution [2]: breaks down quickly
